pKd: −log10 of the molar value.

From PMC2800189, “β-Neurexin Is a Ligand for the Staphylococcus aureus MSCRAMM SdrC” (PLoS Pathogens, 2010) come the findings set out here.

Experiment [1] in a line: Phage display panning with immobilized SdrGN2N3 or BSA, total bound TUs. The experiment is classed as binding. Particulars: input phage 1.5×10^11, 1 µg/well. The source says: Analysis of peptides or protein segments displaced on the surface of phage is a useful method to identify partners in protein-protein interaction systems,[17],[18],[19]. To determine if this method can be used to identify ligands for MSCRAMMs from Gram-positive bacteria, we performed a validation experiment using SdrGN2N3 as bait in a screen of a commercially available 12-mer linear library (New England Biolabs Ph.D.-12 Phage Display Peptide Library). We carried out three successive rounds of panning against immobilized SdrGN2N3. To confirm that the enrichment of the phage clones between panning rounds was the result of specific interactions, the phage pool before and after each step of amplification was also tested for binding to BSA. […] We then sequenced the DNA purified from ten phage plaques obtained after the third round of panning.
NEB Ph.D.12-mer random library was incubated with immobilized SdrC N2N3, SdrG N2N3 or BSA at 1 µg/well. The input was 1.5×10^11 transducing units with a complexity of 2.7×10^9 electroporated sequences. The assay was performed according to the manufacturer's instructions. The output phage plaques were 10^4 transducing units. Wells were washed with 0.5% Tween in TBS buffer, blocked with 10% BSA and incubated with 1×10^8 transducing units of each amplified phage or insertless phage (fd-tet). To remove unbound phage, wells were washed 10 times with 0.5% Tween in TBS. Bound phage was detected with anti-M13-HRP antibody (GE Healthcare, Buckinghamshire, UK).

Experiment [2] has as its system SdrCN2N3 - Nrx47-255 interaction. Put plainly: Peptide inhibition of SdrCN2N3 binding to immobilized Nrx47-255. The conditions noted are these: 0.5 µM SdrCN2N3 with increasing peptide, 2 hours, room temperature, then on immobilized Nrx47-255; mean±SD of triplicates from three experiments. Further details: species or system S. aureus (SdrC). How it is done:
Figure 3 Structural organization of β-neurexins. (A) A cartoon representation of β-neurexin domain structure. S, signal sequence; NL, neuroligin-binding domain; Glyc, glycosylation domain; TM, transmembrane domain; PDZ, intracellular signaling domain. Also shown, are the recombinant proteins used in this study. (B) Coomassie-stained SDS-PAGE gel of GST-tagged neurexin 1β domains recombinant proteins. Increasing concentrations of SdrCA (C) and SdrCN2N3 (D) were incubated with immobilized Nrx47-255 (black square), Nrx70–255 (black triangle) or GST (black circle) for 1 hour at room temperature. […] (E) SdrC178–496 (0.5 µM) was incubated with increasing concentrations of spNrxwt peptide (black square) or spNrxscr peptide (black triangle) at room temperature. After 2 hours, the mixture was incubated with immobilized Nrx47–255. […]
Each well of Immulon 4BH plates was coated with 1 µg of recombinant Nrx47–255-GST, Nrx70–255-GSTor GST overnight at 4°C. […] Bound protein was detected with a polyclonal antibody (1∶3000) against SdrCN2N3 (H.T.I. BioProducts) followed by an anti-rabbit HRP-labeled antibody (1∶5000) (Bio-Rad Labs, Hercules, CA). Color development was performed using SigmaFast OPD (Sigma, St. Louis, MO) and the binding was measured using a microtiter plate reader (Molecular Devices) at 450 nm. […] The binding was analyzed by non-linear regression for one binding site (GraphPad Prism).

For experiment [3], the target named is T1, SdrCN2N3 (Staphylococcus aureus, UniProt O86487).
T1 construct: Increasing concentrations of SdrC178-496 were incubated with 10 nM labeled peptide; His tag (N); made in house; host or cells: E. coli Topp 3
T1 sequence (O86487 178-496): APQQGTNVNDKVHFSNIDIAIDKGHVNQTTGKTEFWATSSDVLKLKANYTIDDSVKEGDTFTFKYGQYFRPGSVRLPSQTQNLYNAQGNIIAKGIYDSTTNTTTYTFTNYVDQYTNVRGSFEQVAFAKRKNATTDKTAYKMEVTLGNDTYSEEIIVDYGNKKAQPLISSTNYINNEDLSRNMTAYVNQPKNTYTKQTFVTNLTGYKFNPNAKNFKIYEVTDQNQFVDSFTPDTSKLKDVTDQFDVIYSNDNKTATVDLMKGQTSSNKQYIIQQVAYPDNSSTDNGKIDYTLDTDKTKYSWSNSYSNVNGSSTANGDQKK
In kind it is binding, S. aureus. Particulars: 10 nM fluorescein-labeled peptide, 3 hours, room temperature, dark.
Method: We used fluorescence polarization to determine the dissociation constant for the SdrCN2N3-Nrx1β peptide interaction. spNrxwt and spNrxscr were labeled with fluorescein and incubated with increasing concentrations of recombinant MSCRAMM.
Increasing concentrations of SdrCN2N3 or ClfBN2N3 (black circle) were incubated with 10 nM fluorescein-labelled spNrxwt peptide (black square) or spNrxscr peptide (black triangle) for 3 hours at room temperature in the dark. Equation ΔP = ΔPmax [protein]/(KD+[protein]) was used to calculate the equilibrium constant. […] After 3 hours, the mixture was incubated for another 3 hours at room temperature in the dark with 10 nM fluorescein labeled spNrxwt peptide. Fluorescence polarization was determined as described above. […]
Increasing concentrations of SdrC178-496 were incubated with 10 nM labeled peptide for 3 hours in the dark at room temperature. Polarization was measured using Luminescence Spectrometer LB50B (Perkin Elmer). The data were analyzed by non-linear regression for one binding site. The equilibrium dissociation constant was calculated using the equation ΔP = ΔPmax x [protein])/(KD + [protein]) (Eq.1) where ΔP is the change in fluorescence polarization, ΔPmax is the maximum change in fluorescence polarization and KD is the equilibrium dissociation constant of the interaction.

Experiment [4] addresses T1, SdrCN2N3. Put plainly: Fluorescence polarization inhibition by unlabeled peptides of SdrCN2N3 binding to fluorescein-labeled spNrxwt. The arrangement: species or system S. aureus. The conditions noted are these: 0.5 µM SdrCN2N3 with unlabeled peptide 3 hours, then 3 hours with 10 nM labeled spNrxwt, room temperature; mean±SD, three experiments. Background: Fluorescence polarisation rises when a labelled molecule tumbles more slowly, as on binding a larger partner.
Method: After 3 hours, the mixture was incubated for another 3 hours at room temperature in the dark with 10 nM fluorescein labeled spNrxwt peptide. Fluorescence polarization was determined as described above. The values represented here are the mean±SD of triplicates from three experiments.
To eliminate the possibility that the binding was dependent of the fluorescein label introduced in the wild-type peptide, we tested the ability of unlabeled spNrxwt and spNrxscr to inhibit the binding of SdrCN2N3 to fluorescein-labeled spNrxwt. Increasing concentrations of unlabeled peptides were incubated with SdrCN2N3 for three hours at room temperature before the fluorescent polarization experiment was performed.
For inhibition assays, 0.5 µM SdrC178–496 was first incubated with increasing concentrations of unlabeled Nrxwt or unlabeled Nrxscr for 3 hours at room temperature. The mixture was then incubated for 3 hours with fluorescein-labeled Nrxwt. The results presented represent the mean±SD of three independent experiments.

Experiment [5] deals with Nrx_(47-255)-GST, recombinant neurexin 1β fragment (human) (UniProt P58400). Briefly: ELISA; solid phase binding assay: 1 µg/well Nrx-GST protein or GST coated on Immulon 4BH plates, increasing concentrations of SdrC protein, 1 hour at room temperature, detected with anti-SdrC_(N2N3) serum; apparent KD (concentration for half maximum binding). In general terms: ELISA stands for enzyme-linked immunosorbent assay.
Chain of Nrx_(47-255)-GST, recombinant neurexin 1β fragment (human) (P58400 47-255): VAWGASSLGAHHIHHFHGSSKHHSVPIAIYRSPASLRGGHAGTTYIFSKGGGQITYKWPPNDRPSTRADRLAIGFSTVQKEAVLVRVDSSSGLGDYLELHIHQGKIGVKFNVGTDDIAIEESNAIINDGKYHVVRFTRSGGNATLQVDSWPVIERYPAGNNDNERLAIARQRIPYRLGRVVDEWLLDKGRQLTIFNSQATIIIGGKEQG

Experiment [6] addresses fluorescein-labeled spNrxwt (human). Briefly: fluorescence polarisation; increasing concentrations of MSCRAMM with 10 nM fluorescein-labelled peptide, 3 hours at room temperature in the dark; one-site fit.

Chain of SdrC N2N3 domain, recombinant SdrC_(178-496) (O86487 178-496 limits assumed): as the sequence (O86487 178-496) above
Chain of SdrC A-region, recombinant SdrC_(52-496) (O86487 52-496 limits assumed): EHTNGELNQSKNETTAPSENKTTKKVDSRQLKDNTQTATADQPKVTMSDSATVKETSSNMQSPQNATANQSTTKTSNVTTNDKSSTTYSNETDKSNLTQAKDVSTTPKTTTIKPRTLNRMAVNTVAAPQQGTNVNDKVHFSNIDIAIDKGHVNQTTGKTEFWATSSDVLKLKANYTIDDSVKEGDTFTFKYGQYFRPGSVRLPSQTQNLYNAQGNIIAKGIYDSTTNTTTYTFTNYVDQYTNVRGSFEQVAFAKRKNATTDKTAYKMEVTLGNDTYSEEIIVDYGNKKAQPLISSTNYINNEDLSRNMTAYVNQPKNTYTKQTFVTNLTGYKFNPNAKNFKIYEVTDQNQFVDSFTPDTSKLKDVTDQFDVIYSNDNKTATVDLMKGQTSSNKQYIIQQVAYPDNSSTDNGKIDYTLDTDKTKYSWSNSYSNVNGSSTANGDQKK

In the case of “SdrG: fibrinogen-binding MSCRAMM of Staphylococcus epidermidis, N2N3 domain used as bait”, the “Total bound TUs” value in experiment [1] (panning 1) is on record as 4×10^5 TUs; in experiment [1] (panning 2), 3×10^7 TUs; in experiment [1] (panning 3) it was 2×10^8 TUs.
As to HSHIKLHSHGHSFGHA [spNrxscr], the “inhibition of SdrCN2N3-Nrx47-255 binding” value in experiment [2] is recorded as “did not observe an inhibition”. Also, the “binding to SdrCN2N3 by fluorescence polarization” value on SdrCN2N3 [3] is listed as “did not detect a significant binding”. Also, the “inhibition of SdrCN2N3 binding to fluorescein-labeled spNrxwt” value on SdrCN2N3 [4] is “but not the spNrxscr inhibited”.
For the substance “SdrC A-region, recombinant SdrC_(52-496) (from UniProt O86487 52-496) (domain or fragment)”, the pKd (usually the Kd on a negative log10 scale, so that one unit is a factor of ten) in experiment [5] was 6.73.
On to “SdrC N2N3 domain, recombinant SdrC_(178-496) (from UniProt O86487 178-496) (domain or fragment)”, for which the pKd is 6.60 in experiment [6] and 6.90 in experiment [5].
